Source: patent publication US8357694B2, “Substituted 5,6-dihydro-6-phenylbenzo[F]isoquinolin-2-amine compounds” (ArQule, Inc., priority 2008, dated 2013)
Structures can show the parent of a compound that is named as a salt.

Compound | melting point [°C]
OCCc1ccc(Nc2ncc3c(n2)-c2ccccc2C(c2cccc(Br)c2)C3)cc1 (centres unmarked) [Example 7, 2-(4-(6-(3-bromophenyl)-5,6-dihydrobenzo[h]quinazolin-2-ylamino)phenyl)ethanol] | 88 to 90
OCCc1cc(Nc2ncc3c(n2)-c2ccccc2[C@H](c2ccccc2F)C3)ccc1F [Example 169, (R)-2-(2-fluoro-5-(6-(2-fluorophenyl)-5,6-dihydrobenzo[h]quinazolin-2-ylamino)phenyl)ethano] | 140 to 141
COCCNCc1cccc(Nc2ncc3c(n2)-c2ccccc2[C@H](c2ccccc2F)C3)c1 (as salt: hydrochloride) [Example 178, (R)-6-(2-fluorophenyl)-N-(3-((2-methoxyethylamino)methyl)phenyl)-5,6-dihydrobenzo[h]quinazolin-2-amine hydrochloride] | 158 to 163
CCN(CCc1ccc(Nc2ncc3c(n2)-c2ccccc2C(c2cccc(Br)c2)C3)cc1)C(C)C (centres unmarked) [Example 40, 6-(3-bromophenyl)-N-(4-(2-(ethyl(isopropyl)amino)ethyl)phenyl)-5,6-dihydrobenzo[h]quinazolin-2-amine] | 67 to 69
NCCc1ccc(Nc2ncc3c(n2)-c2ccccc2C(c2cccc(Br)c2)C3)cc1 (centres unmarked) [Example 34, N-(4-(2-aminoethyl)phenyl)-6-(3-bromophenyl)-5,6-dihydrobenzo[h]quinazolin-2-amine] | 115 to 117
CN(C)CCCNc1ncc2c(n1)-c1ccccc1[C@H](c1ccc(Cl)c(Cl)c1)C2 [Example 13, (S)—N^1-(6-(3,4-dichlorophenyl)-5,6-dihydrobenzo[h]quinazolin-2-yl)-N^3,N^3-dimethylpropane-1,3-diamine] | 59 to 62
N#Cc1c(N)ncc2c1-c1ccccc1C(c1ccc(Cl)cc1Cl)C2 (centres unmarked) [Example 151, 2-amino-6-(2,4-dichlorophenyl)-5,6-dihydrobenzo[f]isoquinoline-1-carbonitrile] | 282 to 284
N#Cc1c(NCCCN2CCCC2)ncc2c1-c1ccccc1C(c1ccc(Cl)c(Cl)c1)C2 (centres unmarked) [Example 180, 6-(3,4-dichlorophenyl)-2-(3-(pyrrolidin-1-yl)propylamino)-5,6-dihydrobenzo[f]isoquinoline-1-carbonitrile] | 104 to 110
CN(CCc1ccccc1)CCc1ccc(Nc2ncc3c(n2)-c2ccccc2C(c2cccc(Br)c2)C3)cc1 (centres unmarked) [Example 37, 6-(3-bromophenyl)-N-(4-(2-(methyl(phenethyl)amino)ethyl)phenyl)-5,6-dihydrobenzo[h]quinazolin-2-amine] | 80 to 82
CN1CCN(CCc2cc(Nc3ncc4c(n3)-c3ccccc3[C@H](c3ccccc3F)C4)ccc2F)CC1 (as salt: hydrochloride) [Example 174, (R)—N-(4-fluoro-3-(2-(4-methylpiperazin-1-yl)ethyl)phenyl)-6-(2-fluorophenyl)-5,6-dihydrobenzo[h]quinazolin-2-amine hydrochloride salt] | 225 to 229
Clc1ccc([C@@H]2Cc3cnc(Nc4cccc(CCN5CCCCC5)c4)nc3-c3ccccc32)cc1Cl (as salt: hydrochloride) [Example 167, (S)-6-(3,4-dichlorophenyl)-N-(3-(2-(piperidin-1-yl)ethyl)phenyl)-5,6-dihydrobenzo[h]quinazolin-2-amine hydrochloride] | 165 to 169
CCCCN(C)CCc1ccc(Nc2ncc3c(n2)-c2ccccc2C(c2ccc(F)c(F)c2)C3)cc1 (centres unmarked) (as salt: hydrochloride) [Example 58, N-(4-(2-(butyl(methyl)amino)ethyl)phenyl)-6-(3,4-difluorophenyl)-5,6-dihydrobenzo[h]quinazolin-2-amine] | 85 to 91
CN(CCc1ccc(Nc2ncc3c(n2)-c2ccccc2[C@H](c2ccc(Cl)c(Cl)c2)C3)cc1)C1CCCCC1 (as salt: hydrochloride) [Example 106, (S)—N-(4-(2-(cyclohexyl(methyl)amino)ethyl)phenyl)-6-(3,4-dichlorophenyl)-5,6-dihydrobenzo[h]quinazolin-2-amine hydrochloride salt] | 175 to 185
CCN(CCc1ccc(Nc2ncc3c(n2)-c2ccccc2C(c2cccc(Br)c2)C3)cc1)Cc1ccncc1 (centres unmarked) [Example 41, 6-(3-bromophenyl)-N-(4-(2-(ethyl(pyridin-4-ylmethyl)amino)ethyl)phenyl)-5,6-dihydrobenzo[h]quinazolin-2-amine] | 88 to 90
COCCN1CCN(CCc2ccc(Nc3ncc4c(n3)-c3ccccc3[C@@H](c3ccc(F)c(F)c3)C4)cc2)CC1 (as salt: hydrochloride) [Example 90, (R)-6-(3,4-difluorophenyl)-N-(4-(2-(4-(2-methoxyethyl)piperazin-1-yl)ethyl)phenyl)-5,6-dihydrobenzo[h]quinazolin-2-amine hydrochloride] | 190 to 192
COCCN1CCN(CCc2ccc(Nc3ncc4c(n3)-c3ccccc3C(c3ccccc3)C4)cc2)CC1 (centres unmarked) [Example 65, N-(4-(2-(4-(2-methoxyethyl)piperazin-1-yl)ethyl)phenyl)-6-phenyl-5,6-dihydrobenzo[h]quinazolin-2-amine] | 52 to 54

Compound | melting point [°C]
Fc1ccc([C@@H]2Cc3cnc(Nc4ccc(CCN5CCCCC5)cc4)nc3-c3ccccc32)cc1F (as salt: hydrochloride) [Example 84, (S)-6-(3,4-difluorophenyl)-N-(4-(2-(piperidin-1-yl)ethyl)phenyl)-5,6-dihydrobenzo[h]quinazolin-2-amine hydrochloride] | 163 to 165
CCCCN(C)CCc1cc(Nc2ncc3c(n2)-c2ccccc2[C@H](c2ccccc2F)C3)ccc1F (as salt: hydrochloride) [Example 172, (R)—N-(3-(2-(butyl(methyl)amino)ethyl)-4-fluorophenyl)-6-(2-fluorophenyl)-5,6-dihydrobenzo[h]quinazolin-2-amine hydrochloride salt] | 125 to 130
COCCN1CCN(CCc2ccc(Nc3ncc4c(n3)-c3ccccc3[C@H](c3ccc(Br)cc3)C4)cc2)CC1 (as salt: hydrochloride) [Example 97, (S)-6-(4-bromophenyl)-N-(4-(2-(4-(2-methoxyethyl)piperazin-1-yl)ethyl)phenyl)-5,6-dihydrobenzo[h]quinazolin-2-amine hydrochloride salt] | 265 to 270
CN(C)CCNCCc1ccc(Nc2ncc3c(n2)-c2ccccc2C(c2cccc(Br)c2)C3)cc1 (centres unmarked) [Example 44, N^1-(4-(6-(3-bromophenyl)-5,6-dihydrobenzo[h]quinazolin-2-ylamino)phenethyl)-N^2,N^2-dimethylethane-1,2-diamine] | 75 to 77
COCCNCc1cccc(Nc2ncc3c(n2)-c2ccccc2[C@H](c2ccccc2F)C3)c1 (as salt: HCl) [Example 158, (R)-6-(2-fluorophenyl)-N-(3-((2-methoxyethylamino)methyl)phenyl)-5,6-dihydrobenzo[h]quinazolin-2-amine] | 139 to 147
CN(C)CCCNc1ncc2c(n1)-c1ccccc1C(c1ccc(Cl)c(Cl)c1)C2 (centres unmarked) [Example 11, N^1-(6-(3,4-dichlorophenyl)-5,6-dihydrobenzo[h]quinazolin-2-yl)-N^3,N^3-dimethylpropane-1,3-diamine] | 110 to 114
CN(C)CCCNc1ncc2c(n1)-c1ccccc1C(c1cccc(Br)c1)C2 (centres unmarked) [Example 5, N^1-(6-(3-bromophenyl)-5,6-dihydrobenzo[h]quinazolin-2-yl)-N^3,N^3-dimethylpropane-1,3-diamine] | 120 to 122
COCCN1CCN(CCc2ccc(Nc3ncc4c(n3)-c3ccccc3[C@H](c3ccccc3F)C4)cc2)CC1 (as salt: hydrochloride) [Example 66, (R)-6-(2-fluorophenyl)-N-(4-(2-(4-(2-methoxyethyl)piperazin-1-yl)ethyl)phenyl)-5,6-dihydrobenzo[h]quinazolin-2-amine hydrochloride] | 212 to 216
CN1CCN(CCc2ccc(Nc3ncc4c(n3)-c3ccccc3[C@H](c3ccc(F)c(F)c3)C4)cc2)CC1 (as salt: hydrochloride) [Example 88, (S)-6-(3,4-difluorophenyl)-N-(4-(2-(4-methylpiperazin-1-yl)ethyl)phenyl)-5,6-dihydrobenzo[h]quinazolin-2-amine hydrochloride] | 90 to 92
CN(CCc1ccc(Nc2ncc3c(n2)-c2ccccc2C(c2ccc(F)c(F)c2)C3)cc1)C1CCCCC1 (centres unmarked) (as salt: hydrochloride) [Example 60, N-(4-(2-(cyclohexyl(methyl)amino)ethyl)phenyl)-6-(3,4-difluorophenyl)-5,6-dihydrobenzo[h]quinazolin-2-amine] | 107 to 114
COCCN1CCN(CCc2ccc(Nc3ncc4c(n3)-c3ccccc3C(c3ccc(Cl)c(Cl)c3)C4)cc2)CC1 (centres unmarked) [Example 33, 6-(3,4-dichlorophenyl)-N-(4-(2-(4-(2-methoxyethyl)piperazin-1-yl)ethyl)phenyl)-5,6-dihydrobenzo[h]quinazolin-2-amine] | 121 to 122
Fc1ccc([C@H]2Cc3cnc(Nc4ccc(CCN5CCCCC5)cc4)nc3-c3ccccc32)cc1F (as salt: hydrochloride) [Example 91, (R)-6-(3,4-difluorophenyl)-N-(4-(2-(piperidin-1-yl)ethyl)phenyl)-5,6-dihydrobenzo[h]quinazolin-2-amine hydrochloride] | 165 to 167
Brc1cccc(C2Cc3cnc(Nc4ccc(CCNc5ccccc5)cc4)nc3-c3ccccc32)c1 (centres unmarked) [Example 35, 6-(3-bromophenyl)-N-(4-(2-(phenylamino)ethyl)phenyl)-5,6-dihydrobenzo[h]quinazolin-2-amine] | 92 to 94
Nc1ncc2c(n1)-c1ccccc1C(c1ccc(Cl)c(Cl)c1)C2 (centres unmarked) | 159 to 160
Brc1cccc(C2Cc3cnc(Nc4ccc(CCNCCN5CCOCC5)cc4)nc3-c3ccccc32)c1 (centres unmarked) [Example 45, 6-(3-bromophenyl)-N-(4-(2-(2-morpholinoethylamino)ethyl)phenyl)-5,6-dihydrobenzo[h]quinazolin-2-amine] | 85 to 87
COCCN1CCN(CCc2cccc(Nc3ncc4c(n3)-c3ccccc3[C@H](c3ccc(Cl)c(Cl)c3)C4)c2)CC1 (as salt: hydrochloride) | 220 to 225
